Assay [1] relates to human prostate cancer cell LNCaP-FGC. In words: Prostate specific antigen (PSA) production inhibition in prostate cancer cell. The class given is cell-based. As to conditions: 72 h, 1 μM compound, testosterone 1 ng/mL, three days, PSA in culture supernatant by ELISA, testosterone non-added group 100%, testosterone-added group 0%, read-out: PSA production Inhibitory rate (%) at 1 μM. The procedure:
A human prostate cancer cell LNCaP-FGC was inoculated on a 96-well plate at 5000 cells/100 μL/well and, on the next day, testosterone having the final concentration of 1 ng/mL and 1 μM of a compound were added. Three days after addition, the PSA concentration in the culture supernatant was measured by ELISA, and a PSA production inhibition rate was calculated, letting the rate of a testosterone non-added group to be 100%, and letting the rate of a testosterone-added group to be 0%.

The target of assay [2] is T1, wild-type androgen receptor (AR) (Homo sapiens, UniProt P10275).
T1 sequence (P10275 1-920): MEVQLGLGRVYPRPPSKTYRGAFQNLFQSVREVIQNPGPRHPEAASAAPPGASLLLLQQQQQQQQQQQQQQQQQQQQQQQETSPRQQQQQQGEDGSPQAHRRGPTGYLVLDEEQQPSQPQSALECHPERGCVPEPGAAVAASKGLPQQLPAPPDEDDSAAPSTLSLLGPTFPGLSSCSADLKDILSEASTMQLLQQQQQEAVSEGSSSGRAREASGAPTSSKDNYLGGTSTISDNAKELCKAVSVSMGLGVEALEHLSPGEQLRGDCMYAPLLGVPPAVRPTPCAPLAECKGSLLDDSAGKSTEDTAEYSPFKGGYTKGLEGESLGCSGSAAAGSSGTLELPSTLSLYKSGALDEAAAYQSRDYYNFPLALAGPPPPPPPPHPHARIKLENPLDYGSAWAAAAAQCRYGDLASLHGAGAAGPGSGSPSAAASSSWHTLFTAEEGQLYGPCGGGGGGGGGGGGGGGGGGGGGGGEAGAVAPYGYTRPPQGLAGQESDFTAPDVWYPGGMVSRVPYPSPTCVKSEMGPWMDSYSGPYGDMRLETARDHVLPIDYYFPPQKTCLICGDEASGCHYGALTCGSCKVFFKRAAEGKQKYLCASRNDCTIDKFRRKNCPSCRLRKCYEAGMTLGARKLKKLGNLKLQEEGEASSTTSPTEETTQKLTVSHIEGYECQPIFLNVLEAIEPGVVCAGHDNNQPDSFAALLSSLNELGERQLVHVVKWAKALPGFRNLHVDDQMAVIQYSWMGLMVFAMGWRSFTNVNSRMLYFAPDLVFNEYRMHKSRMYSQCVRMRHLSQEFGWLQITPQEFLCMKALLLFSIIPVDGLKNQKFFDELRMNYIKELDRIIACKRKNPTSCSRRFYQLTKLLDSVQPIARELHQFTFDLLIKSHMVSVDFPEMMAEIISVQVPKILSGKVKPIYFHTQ
Nature of the assay: AR binding inhibitory test (wild type). As to conditions: 1 μM compound, 3 nM miboleron, 4° C. for 3 hours, dextran/charcoal B/F separation; read-out: Inhibitory rate (%) at 1 μM, Wild type. How it is done: 3 nM miboleron and 1 μM of a compound was added to a solution containing a wild-type androgen receptor (AR) or an androgen receptor (AR) having a LNCaP type mutation, this was incubated at 4° C. for 3 hours, and B(Bound)/F(Free) separation was performed by a dextran/charcoal method. A label count of B was measured, and an inhibition rate of the compound was calculated.

The target in another assay is T2, mutated AR (W741C) (Homo sapiens, UniProt P10275, W742C).
T2 construct: expressed in transfected cells; host or cells: Cos-7
T2 sequence (P10275 1-920 W742C): T1 sequence (P10275 1-920) with W742C
Nature of the assay: AR transcription inhibition test (luciferase reporter in Cos-7). The following applies: 0.1 μM compound, DHT 0.04 μM, 24 hours, luciferase activity, relative to a control. The class given is cell-based. How it is done:
5,000,000 Cells of Cos-7 was inoculated on a flask, and cultured in a culturing solution (DMEM+10% Dextran Charcoal (DCC)-Fetal Bovine Serum (FBS)+2 mM glutamine) for 24 hours, and a vector DNA in which mutated AR (W741C) had been inserted, and a vector DNA in which a luciferase gene had been connected downstream of an androgen-responsive promoter were transfected by a liposome method. After two hours, the medium was exchanged, the cells were cultured for 3 hours, DHT (dihydrotestosterone) having the final concentration of 0.04 μM and an assessment compound having the final concentration of 0.1 μM were added, and the cells were cultured for 24 hours, and luciferase activity was measured to investigate AR transcription inhibition activity of the assessment compound.
For orientation: In a reporter assay the amount or activity of a reporter protein is the signal.

Another assay concerns mouse prostate. Nature of the assay: Test of reduction in weight of mouse prostate. The class given is in vivo. The following applies: 8 week old male mouse, drug non-addition 0%, castration 100%. The source says:
A rate of reduction in a prostate weight is shown in Table 5, letting at drug non-addition to be 0%, and letting at castration to be 100%.

Positions count from the first letter of the chain named.

For the molecule `Cc1c(C#N)c(-c2ccc(C#N)cc2)c(C)n1Cc1cnc(Cl)c(CO)c1` [Compound 1, 1-{[6-Chloro-5-(hydroxymethyl)pyridin-3-yl]methyl}-4-(4-cyanophenyl)-2,5-dimethyl-1H-pyrrole-3-carbonitrile], the inhibition at 1 µM was 99% in assay [1] and 94% in assay [2]. For the same molecule, the “AR transcription Inhibitory rate (%) at 0.1 μM” value on mutated AR (W741C) was determined as 49%. The “Reduction rate (%) of prostate weight” value with mouse prostate (orally 50 mg/kg/day for 7 days) was 74%.

As to `CC(O)(CS(=O)(=O)c1ccc(F)cc1)C(=O)Nc1ccc(C#N)c(C(F)(F)F)c1` (stereo not drawn) [bicalutamide, reference compound], the inhibition at 1 µM in assay [1] turned out to be 58%. The “Reduction rate (%) of prostate weight” value in the assay with mouse prostate (orally 100 mg/kg/day (bicalutamide) for 7 days) amounted to 40%.

The values are drawn from patent publication US20080176906A1, “Substituted Pyrrole Derivative” (Takeda Pharmaceutical Company Limited, priority 2004, published 2008).
